Experimental findings from patent US7927789B1, “Self-referencing biodetection method and patterned bioassays” (SRU Biosystems, Inc., priority 2002, dated 2011) are described below.

“Also recorded” adds a separate entry of the source.

The experiment relates to gelatin. In words: Collagenase cleavage of patterned gelatin on biosensor, BIND imaging. The class given is biochemical. The following applies: 1.5 mg/ml collagenase; gelatin versus regions without gelatin (rabbit IgG). The procedure: A pattern of gelatin (1 mg/ml, Sigma) was applied to a biosensor with a micropipette tip in the shape of the letters “SRU.” The gelatin was allowed to incubate on the biosensor surface for about 60 minutes before a thorough rinse with water. Next, the entire biosensor surface was exposed to a 1 mg/ml solution of rabbit IgG (Sigma) that attached a uniform thin layer of protein across the biosensor so that the peak wavelength value of the biosensor would be roughly equivalent in all locations. After a second rinse in water, the entire biosensor was exposed to a 1.5 mg/ml solution of collagenase, a specific binding partner, for about 80 minutes. The collagenase is an enzyme that selectively cleaves gelatin, thus selectively removing protein from the surface only in regions where the gelatin was applied. […] As a consequence of this selective interaction, an image is measured where the word “SRU” appears as a region with lower peak wavelength value compared to surrounding regions, as shown in FIG. 10.

Turning to collagenase, the “peak wavelength value change in gelatin regions after collagenase” value is recorded as “peak wavelength value in the gelatin regions is reduced relative to the regions without gelatin; also recorded: peak wavelength value in the gelatin reaction surfaces is reduced relative to the reference surfaces without gelatin”.
